# According to PMC10141604, “Small-Molecule Inhibition of Androgen Receptor Dimerization as a Strategy against Prostate Cancer” (ACS Central Science, 2023):
# Key:
# [1] = test system: human gastric epithelial cell (GES-1); test: MTT cell viability assay, GES-1; type: cell-based; settings: 72 h
# Procedure: (§1) 3-(4,5-dimethythiazol-2-yl)-2,5-diphenyl-2-H-tetrazolium bromide (MTT) colorimetric assay was employed to investigate cell viability. Cells were seeded into 96-well plates with 2-5× 10^3 cells per well (5× 10^3 cells/well for LNCaP, 22RV1, NIH-3T3, GES-1, Chang, […]
# (§2) NCI-H1299, U2OS, U87) for 1 day incubation at 37 °C. Then, the cells were treated with various concentrations of compounds (22.86 nM - 50 μM) and incubated for 72 h. Then, 10 μl MTT (5 mg/ml) was added into each well and incubated for 4 h. Afterwards, 100 μl of triplex 10% SDS-0.1% HCl-phosophate-buffered saline (PBS) solutions was added into each well and incubated for overnight. The absorbance at 570 nm was measured (Eon, Bioteck, Winooski, VT). […]
# [2] = test system: secreted PSA from LNCaP cells; test: Secreted prostate-specific antigen (PSA) assay; type: cell-based; settings: for IC50: Homo sapiens, read-out: IC50, PSA levels secreted in the cellular media
# Procedure: Secreted Prostate-Specific Antigen (PSA) Assay
# After the AR transcriptional activity assay was completed, 300 μl of the media
# supernatant including the secreted PSA was measured using […]® 2000 XPi
# Immunoassay System (Siemens Ltd., Erlangen, Germany). […]
# NIH-3T3 = test: MTT cell viability assay, NIH-3T3; type: cell-based, murine; settings: 72 h
# Procedure: as §1, §2
# GR = target: T1, GR (Homo sapiens, UniProt P04150); test: Luciferase reporter assay for GR (HeLa cells); type: cell-based; settings: 10 μM, 1 nM dexamethasone
# T1 construct: host or cells: HeLa
# T1 sequence (P04150 1-777): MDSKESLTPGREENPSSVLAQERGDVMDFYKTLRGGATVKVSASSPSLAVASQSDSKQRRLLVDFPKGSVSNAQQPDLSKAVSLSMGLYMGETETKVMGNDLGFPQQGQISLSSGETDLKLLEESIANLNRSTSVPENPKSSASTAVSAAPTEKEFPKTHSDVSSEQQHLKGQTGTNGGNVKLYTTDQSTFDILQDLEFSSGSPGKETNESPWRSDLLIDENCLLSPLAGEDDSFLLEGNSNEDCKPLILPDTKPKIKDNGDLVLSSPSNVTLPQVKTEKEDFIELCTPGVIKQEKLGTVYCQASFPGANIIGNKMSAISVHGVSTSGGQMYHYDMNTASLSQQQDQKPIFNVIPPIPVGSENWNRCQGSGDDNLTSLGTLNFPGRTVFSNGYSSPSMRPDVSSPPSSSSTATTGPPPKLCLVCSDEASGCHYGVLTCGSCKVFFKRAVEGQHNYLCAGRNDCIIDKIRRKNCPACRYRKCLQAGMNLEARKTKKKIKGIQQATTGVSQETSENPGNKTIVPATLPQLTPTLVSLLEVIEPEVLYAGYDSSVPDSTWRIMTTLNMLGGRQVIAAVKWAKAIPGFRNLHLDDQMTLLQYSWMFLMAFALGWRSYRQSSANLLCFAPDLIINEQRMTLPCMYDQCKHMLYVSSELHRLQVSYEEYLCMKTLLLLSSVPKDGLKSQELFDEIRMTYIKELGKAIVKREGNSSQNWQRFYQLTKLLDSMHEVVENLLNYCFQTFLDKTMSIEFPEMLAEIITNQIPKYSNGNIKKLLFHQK
# Procedure: calculating volume (V= 0.5 × L × W2). Finally, the mice were sacrificed and the tumors were harvested for hematoxylin and eosin (H&E) staining.
# Luciferase Reporter Assays for PR, GR, and MR
# Addgene), 24 ng pGL4.36[luc2P MMTV Hygro] (Promega) and 5 ng Renilla using HG- […]
# Addgene), 24 ng pGL4.36[luc2P MMTV Hygro] (Promega) and 5 ng Renilla using lip3000 transfection reagent (#L3000075, Thermofisher) for 24 h. For MR induction, HEK293T (1 × 10^4 cells/well) were transfected with 71 ng pCMV-MR gifted by Liu et al. 28, 24 ng of pGL4.36[luc2P MMTV Hygro] (Promega) and 5 ng Renilla using lip3000 transfec tion reagent for 24 h. For the antagonistic models, 10 nM /well progesterone for PC3 cells , 1 nM/well dexamethasone for HeLa, and 5 nM/well aldosterone for HEK293T cells were added to stimulate the cells. Meanwhile, each cell line was treated […]
# For the agonistic models, the cells were directly treated with the compounds without any hormones. […]
# hormones progesterone, dexamethasone, and aldosterone were considered as agonists for PR, GR, and MR, respectively. The luciferase activities were assessed using the Dual-Glo Luciferase system (#E1910, Promega).
# Cell Cycle and Apoptosis for LNCaP cells
# LNCaP were cultured in 6-well plate with 5× 10^5 cells/well, after incubated at 37 °C for […]
# Cell cycle were determined after 48 h incubation by Cell Cycle Staining Kit (#CCS012, MULTI SCIENCES) using […]
SMILES,cytotoxicity against GES-1 [1],inhibition of the secretion of PSA [2],IC50 [2] [µM],cytotoxicity against NIH-3T3 (NIH-3T3),GR antagonistic activity (GR)
CC(=O)Cc1nsc(NC(=O)c2cc(-c3cccc(C(F)(F)F)c3)oc2C)n1 [Compound M17-B15],negligible cytotoxicity,dose-dependent,0.35,negligible cytotoxicity,largely ineffective
"CNC(=O)c1ccc(N2C(=S)N(c3ccc(C#N)c(C(F)(F)F)c3)C(=O)C2(C)C)cc1F [Enz, enzalutamide, reference compound]",negligible cytotoxicity,–,0.18,negligible cytotoxicity,largely ineffective
